Data on one compound can be found in publication PMC11484510, “Antibacterial activity of structurally diverse natural prenylated isobavachalcone derivatives” (RSC Advances, 2024).

Structures are written as SMILES. In brackets after ≈: the same amount, converted by molar mass.

Data set [1] has as its system S. aureus. Kind of data set: Cell integrity analysis by PI staining. The data set is classed as cell-based. Conditions: 1× MIC and 2× MIC, 30 minutes, compared to the untreated cells. The protocol:
Propidium iodide (PI) indicates cell integrity, emitting a red fluorescence signal. PI's polar and hydrophilic nature impedes its entrance within active bacterial cells, but within perforated dead cells, it can easily bind to nucleic acid (DNA/RNA).[32,60]S. aureus bacterial cells were incubated overnight at 37 °C and diluted further 1 : 100 in Mueller Hinton Broth (MHB). The diluted culture was grown until its OD600 reached 0.5. […] Vancomycin was used as a drug control at 1× MIC, while untreated bacterial cells were used as growth control. The samples were centrifuged at 5000 rpm speed at 4 °C temperature for 10 minutes, and the pellet was washed two times using phosphate-buffered saline pH-7.4 (PBS). To stain the sample (dead cells), 3 μL PI of 20.0 mM concentration was added to the 1 mL solution (pellet resuspended in PBS) and incubated for 15 minutes. To remove the dye, the samples were centrifuged again and washed with PBS once. The final pellet was resuspended in 1 mL of PBS, and 30 μL of each undiluted sample was used to obtain fluorescence imaging. The cells were observed under fluorescence microscopy.[61]

The test system of another data set is MRSA ATCC 15187. Kind of data set: MBC, plating on MHA. The class given is cell-based, Methicillin-resistant S. aureus. Conditions: Staphylococcus aureus; more than 99.9% of the cells killed; read-out: Minimum bactericidal concentration (MBC) MRSA. The source says: (§1) The bacterial strains S. aureus ATCC 29213, MRSA ATCC 15187, E. coli ATCC 25922, and P. aeruginosa ATCC 27853 were obtained from ATCC (American Type Culture Collection). Cation-adjusted Mueller–Hinton broth (MHB; Becton–Dickinson, Cockeysville, MD) was used to determine the minimum inhibitory concentration (MIC). Mueller–Hinton agar (MHA; Becton–Dickinson) was used for minimum bactericidal concentration (MBC) studies. Alamar blue (Himedia) was used to detect the MIC value.
(§2) MBC is defined as the lowest concentration of the compound at which more than 99.9% of the cells were killed compared with the growth control. The minimum compound concentration at which no visible bacterial growth was observed was taken as the Minimum Bactericidal Concentration (MBC).[50]

Data set [2] in a line: Cell viability assay (MTT). Conditions: mouse, RAW 264.7 macrophage cells; RAW 264.7 macrophage cell line, MTT assay. The data set is classed as cell-based, murine. The method, then: RAW 264.7 cells were acquired from the American type culture collection (ATCC, Manassas, VA) and cultured in Dulbecco's modified eagle's medium (DMEM, Gibco, Life Technologies, NY) supplemented with 10% fetal bovine serum (FBS) at 37 °C and 5% CO2. MTT dye (Himedia) was used to detect CC50 values. The antibiotics ciprofloxacin hydrochloride monohydrate (Himedia), kanamycin sulfate (Himedia), and vancomycin (Himedia) were used for reference in microbiological assays.
The effect of compounds (IBC, IBC-2, and IBC-3) on the viability of cells was evaluated at different concentrations against macrophage cell lines through the 3-(4,5-dimethylthiazol2-yl)-2, 5-diphenyltetrazolium bromide (MTT) assay. The RAW 264.7 cells are monocyte/macrophage-like cells originating from an Abelson leukemia virus-transformed cell line derived from BALB/c mice. Due to their reliability and consistency, these cell lines are widely utilized for both in vitro and in vivo analyses.[52] The MTT assay is a colorimetric assay used to measure the viability and cytotoxicity of cells. The cells (2 × 10^4 cells per well) were grown at 37 °C with 5% CO2 for 48 hours, then exposed to compounds with different concentrations. […] After 20–21 hours, 20 μL of MTT dye at 2.5 mg mL^−1 concentration was added to each well and incubated for 4 hours. 100 μL DMSO solubilized the water-insoluble purple and white formazan produced.[53] The formation of the formazan salt by mitochondrial dehydrogenases was measured at 570.0 nm after incubating for 20 min. The percentage cytotoxicity was calculated with respect to the untreated cells, and the CC50 value was calculated. CC50 was defined as the concentration of an inhibitor that reduces cellular activities by 50% compared to untreated control cultures. The CC50 values were calculated as the concentration where the absorbance was reduced by 50% using GraphPad Prism software.[54] The selectivity index (SI) determines the safety profile of the compound. It is calculated as the ratio of compound concentration at which 50% of cell growth is inhibited compared to untreated cells (CC50) to the effective inhibiting concentration against bacterial strain (MIC). The high SI (>10 fold of MIC) of a drug is proven to have a favorable safety profile.[28] Selectivity index (SI) = CC50 of the compound (μM)/MIC of the compound (μM).
A general note: Tetrazolium assays rely on reduction of a dye to a coloured formazan, in cell work by metabolically active cells.

For a further data set, the system named is E. coli ATCC 25922. Kind of data set: MBC, plating on MHA. The class given is cell-based. The settings on record: Escherichia coli, ATCC25922; more than 99.9% of the cells killed; read-out: Minimum bactericidal concentration (MBC) E. coli.
Description: as §1, §2

The test system of another data set is P. aeruginosa ATCC 27853. Kind of data set: MBC, plating on MHA. Conditions: Pseudomonas aeruginosa, ATCC27853; more than 99.9% of the cells killed; read-out: Minimum bactericidal concentration (MBC) P. aeruginosa. The class given is cell-based.
Description: as §1, §2

In a further data set the test system is S. aureus ATCC 29213. Kind of data set: MBC, plating on MHA. The settings on record: Staphylococcus aureus, ATCC29213; more than 99.9% of the cells killed; read-out: Minimum bactericidal concentration (MBC) S. aureus. The class given is cell-based.
Description: as §1, §2

For data set [3], the system named is S. aureus. Kind of data set: Combinational study (checkerboard microdilution) with standard drugs. The class given is cell-based. The settings on record: S. aureus. The protocol:
The Fractional Inhibitory Concentration Index (FICI) was calculated for each test compound and reference drug to find the combinational effect.
In a 96-well flat bottom plate, the reference drug with 4× MIC was serially diluted horizontally. The test compounds with 4× MIC were serially diluted two-fold outside the plate in 1.5 mL Eppendorf's using Mueller Hinton Broth (MHB). These two serially diluted compounds were combined to create drug-compound combinations in the plate. The reference drug (horizontally) and tested compounds (vertically) alone were serially diluted for MIC determination. 100 μL of the standardized bacterial inoculum with a turbidity equivalent to a 0.5 McFarland standard were diluted 1 : 100 in Mueller Hinton Broth and inoculated in the plates. The plates were incubated for 24 hours at 37 °C. After incubation, 10 μL of freshly prepared Alamar blue (Himedia) was added to each well of the plate, and the plates were further incubated at 37 °C for 30 minutes. After incubation, the plates were visually observed. […] The FICI was calculated using the formula FICI = FIC of compound + FIC of drug. The calculation followed is FICI (CA/(MICA)) + (CB/(MICB)), where CA is the MIC of the compound in combination, CB is the MIC of the drug in combination, and MICA and MICB are the MIC values of individual compounds and drugs, respectively. The range selection followed the interpretation criteria. The FICI range of 0.5 to 4 indicates indifference, ≤ or =0.5 indicates synergy and >4 indicates antagonism.[57]
A general note: In broth dilution the organism is exposed to a series of concentrations in liquid medium.

Regarding `CC(C)=CCc1c(O)ccc2c1O/C(=C\c1ccc(O)cc1)C2=O` [IBC-3, (Z)-6-hydroxy-2-(4-hydroxybenzylidene)-7-(3-methylbut-2-en-1-yl)benzofuran-3(2H)-one], the “PI red fluorescence (cell integrity)” value in the data set on S. aureus [1] is on record as “notably increased intensity of red fluorescence”. In addition, the MBC with MRSA ATCC 15187 stood at 25 µM (≈ 8.06 µg/mL); with E. coli ATCC 25922, 25 µM (≈ 8.06 µg/mL); in the data set on P. aeruginosa ATCC 27853 it was 100 µM (≈ 32.2 µg/mL); with S. aureus ATCC 29213 it was 25 µM (≈ 8.06 µg/mL). In addition, in data set [2], the CC50 (usually the concentration giving 50% cytotoxicity) came to 50 µM. The “MIC combination (compound)” value with S. aureus [3] (MIC of the compound in combination with ciprofloxacin) and with S. aureus [3] (MIC of the compound in combination with vancomycin) was 5 µM throughout. In addition, in the data set on S. aureus [3] (Staphylococcus aureus, checkerboard, substance alone, read-out: MIC alone), the MIC (as a rule, the lowest concentration that inhibits growth of the organism) came to 10 µM. The Outcome of combination entry with S. aureus [3] (compound with ciprofloxacin) is “Indifference (The FICI range of 0.5 to 4 indicates indifference)”. Also, the entries for the “∑ FICI” value in the data set on S. aureus [3] (compound with ciprofloxacin) and with S. aureus [3] (compound with vancomycin) were 1 and 0.5, respectively.
